In ChEMBL document CHEMBL2331080, “Further characterization of a putative serine protease contributing to the γ-secretase cleavage of β-amyloid precursor protein” (Bioorg Med Chem, 2013):
Active and inactive are the calls of the source. No cut-off for these calls is given here.

How the values were obtained:
[1] = biological target: T1, Gamma-secretase (Homo sapiens) (UniProt Q96BI3+Q9NZ42+Q8WW43+P49768+Q92542+P49810); assay: Modulation of gamma-secretase-mediated betaAPP K670N/M671L mutant cleavage in HEK293 cells assessed as inhibition of amyloid beta40/42 production at 10 to 30 uM after 8 hrs by chemiluminescence assay; type: cell-based
HEK293 [2] = assay: Cytotoxicity against HEK293 cells overexpressing betaAPP K670N/M671L mutant at 10 to 30 uM by LDH release assay; type: cell-based; details: human, hek293, 30 µM
[3] = biological target: T1, Gamma-secretase (Homo sapiens); assay: Inhibition of gamma-secretase-mediated betaAPP K670N/M671L mutant cleavage in HEK293 cells assessed as inhibition of amyloid beta40/42 production at 10 to 30 uM after 8 hrs by chemiluminescence assay relative to control; type: cell-based
[4] = biological target: T1, Gamma-secretase (Homo sapiens); assay: Inhibition of gamma-secretase-mediated betaAPP K670N/M671L mutant cleavage in HEK293 cells assessed as inhibition of amyloid beta40/42 production at 60 uM after 8 hrs by chemiluminescence assay relative to control; type: cell-based
HEK293 [5] = assay: Cytotoxicity against HEK293 cells overexpressing betaAPP K670N/M671L mutant at 60 uM by LDH release assay; type: cell-based; details: human, hek293, 60 µM
[6] = Half life of the compound in hepes buffer; type: physicochemical
[7] = biological target: T1, Gamma-secretase (Homo sapiens); assay: Modulation of gamma-secretase-mediated betaAPP K670N/M671L mutant cleavage in HEK293 cells assessed as inhibition of amyloid beta40/42 production at 60 uM after 8 hrs by chemiluminescence assay; type: cell-based
Gamma-secretase = assay: Inhibition of gamma-secretase-mediated betaAPP K670N/M671L mutant cleavage in HEK293 cells assessed as inhibition of amyloid beta40/42 production after 8 hrs by chemiluminescence assay; type: cell-based, Homo sapiens
[8] = biological target: T1, Gamma-secretase (Homo sapiens); assay: Inhibition of presenilin-dependent gamma secretase complex in HEK293 solubilized membranes using Flag-C100 as substrate assessed as inhibition of amyloid beta40/42 production at 60 uM after 16 hrs by Western blotting analysis; type: cell membranes
[9] = Half life of the compound in buffer; type: physicochemical
HEK293 [10] = assay: Cytotoxicity against HEK293 cells overexpressing betaAPP K670N/M671L mutant at 10 uM by LDH release assay; type: cell-based; details: human, hek293, 10 µM
[11] = biological target: T2, Proteasome Macropain subunit MB1 (Homo sapiens, UniProt P28074); assay: Inhibition of chymotrypsin-like activity of Proteasome subunit beta 5 (unknown origin) assessed as inhibition of beta-amyloid production by cell-based assay
T2 sequence (P28074 whole entry): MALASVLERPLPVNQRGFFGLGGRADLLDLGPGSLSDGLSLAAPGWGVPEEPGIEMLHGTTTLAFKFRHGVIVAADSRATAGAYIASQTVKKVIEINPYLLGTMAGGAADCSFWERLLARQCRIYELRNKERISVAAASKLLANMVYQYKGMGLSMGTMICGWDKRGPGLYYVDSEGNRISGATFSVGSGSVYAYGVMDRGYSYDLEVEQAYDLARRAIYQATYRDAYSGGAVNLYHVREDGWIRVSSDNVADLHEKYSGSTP

COc1oc(=O)c2cc(NCc3ccc4ccccc4c3)ccc2c1Cl
inhibition [1]: inactive | Activity (HEK293 [2]): Non-toxic | inhibition [3]: > 50%

COc1oc(=O)c2cc(NC(=O)OCC(Cl)(Cl)Cl)ccc2c1Cl
inhibition [4]: inactive

COc1oc(=O)c2cc(Nc3ccccc3)ccc2c1Cl
Activity (HEK293 [5]): Toxic

COc1oc(=O)c2cc(NC(=O)OCC3c4ccccc4-c4ccccc43)ccc2c1Cl
inhibition [4]: inactive

CCOc1oc(=O)c2cc(N)ccc2c1Cl
inhibition [4]: > 50% | half-life [6]: 3.5 h

COc1oc(=O)c2cc(NC(=O)OC34CC5CC(CC(C5)C3)C4)ccc2c1Cl
inhibition [4]: inactive

COc1oc(=O)c2cc(Nc3cccc([N+](=O)[O-])c3)ccc2c1Cl
inhibition [4]: inactive | Activity (HEK293 [5]): Non-toxic

COc1cc2ccc([N+](=O)[O-])cc2c(=O)o1
inhibition [7]: Active

COc1oc(=O)c2cc(NCc3ccc([N+](=O)[O-])cc3)ccc2c1Cl
inhibition [4]: > 50% | Activity (HEK293 [2]): Non-toxic | IC50 (Gamma-secretase): 10 µM | inhibition [3]: > 50%

COc1ccc(CNc2ccc3c(Cl)c(OC)oc(=O)c3c2)cc1
inhibition [4]: inactive | Activity (HEK293 [5]): Non-toxic

COc1oc(=O)c2cc(NC(=O)OCc3ccccc3)ccc2c1Cl
inhibition [4]: inactive

COc1oc(=O)c2cc(NCC(C)(C)C)ccc2c1Cl
Activity (HEK293 [5]): Toxic

CCCCCCCCCNc1ccc2c(Cl)c(OC)oc(=O)c2c1
inhibition [7]: Active | Activity (HEK293 [2]): Non-toxic | inhibition [3]: > 50%

CC(C)C[C@@H](NC(=O)[C@H](Cc1ccccc1)NC(=O)c1cnccn1)B(O)O
inhibition [8]: inactive | inhibition [4]: inactive

CC(C)C[C@@H](NC(=O)[C@H](Cc1ccccc1)NC(=O)c1ccccc1)B(O)O
inhibition [8]: inactive | inhibition [4]: > 50%

COc1oc(=O)c2cc(NC(=O)C(C)(C)C)ccc2c1Cl
inhibition [7]: Active

CC(C)C[C@@H](NC(=O)[C@H](Cc1ccccc1)NC(=O)c1ccccc1)B1O[C@H]2C[C@H]3C[C@H](C3(C)C)[C@@]2(C)O1
inhibition [8]: inactive | inhibition [4]: > 50%

COc1oc(=O)c2cc(NCc3ccc(OCc4ccccc4)cc3)ccc2c1Cl
inhibition [1]: inactive | Activity (HEK293 [2]): Non-toxic | inhibition [3]: > 50%

CC(C)C[C@H](NC(=O)[C@H](Cc1ccccc1)NC(=O)c1ccccc1)B1O[C@H]2C[C@H]3C[C@H](C3(C)C)[C@@]2(C)O1
inhibition [8]: inactive | inhibition [4]: > 50% | IC50 (Gamma-secretase): 10 µM

CCOC(=O)Nc1ccc2c(Cl)c(OC)oc(=O)c2c1
inhibition [4]: inactive

COc1oc(=O)c2cc(NC(=O)CCCC(=O)O)ccc2c1Cl
inhibition [4]: inactive

COc1oc(=O)c2cc(NCc3ccccc3[N+](=O)[O-])ccc2c1Cl
inhibition [1]: inactive | Activity (HEK293 [2]): Non-toxic | inhibition [3]: > 50%

CCC(C)Oc1oc(=O)c2cc([N+](=O)[O-])ccc2c1Cl (centres undefined)
half-life [9]: < 0.333 h | inhibition [4]: inactive

CC(C)C[C@@H](NC(=O)[C@H](Cc1ccccc1)NC(=O)c1cnccn1)B1O[C@H]2C[C@H]3C[C@H](C3(C)C)[C@@]2(C)O1
inhibition [8]: inactive | inhibition [4]: inactive

CC(C)C[C@H](NC(=O)[C@H](Cc1ccccc1)NC(=O)c1cnccn1)B(O)O
inhibition [8]: inactive | inhibition [4]: inactive

COCCOc1cc2ccc(N)cc2c(=O)o1
inhibition [4]: inactive

COc1oc(=O)c2cc(NCC(C)C)ccc2c1Cl
inhibition [4]: > 50% | Activity (HEK293 [2]): Non-toxic | IC50 (Gamma-secretase): 10 µM | inhibition [3]: > 50%

CCCCOc1oc(=O)c2cc(N)ccc2c1Cl
Activity (HEK293 [10]): Non-toxic | Activity (HEK293 [5]): Toxic

CCCCOc1oc(=O)c2cc([N+](=O)[O-])ccc2c1Cl
half-life [9]: < 0.333 h | inhibition [4]: inactive

COc1cc2ccc(N)cc2c(=O)o1
inhibition [4]: inactive

COc1oc(=O)c2cc(NCc3ccccc3)ccc2c1Cl
inhibition [4]: inactive | Activity (HEK293 [5]): Non-toxic

Nc1ccc2cc(OCCBr)oc(=O)c2c1
inhibition [4]: inactive

O=c1oc(OCCBr)cc2ccc([N+](=O)[O-])cc12
inhibition [4]: > 50%

COc1oc(=O)c2cc(NCCC(C)C)ccc2c1Cl
inhibition [4]: > 50% | Activity (HEK293 [5]): Non-toxic

COc1oc(=O)c2cc(NCCC(C)(C)C)ccc2c1Cl
Activity (HEK293 [2]): Toxic | inhibition [3]: > 50%

COCCOc1cc2ccc([N+](=O)[O-])cc2c(=O)o1
inhibition [4]: > 50%

COc1oc(=O)c2cc(NCC3CCCCC3)ccc2c1Cl
Activity (HEK293 [2]): Toxic | inhibition [3]: > 50%

C=CCOC(=O)Nc1ccc2c(Cl)c(OC)oc(=O)c2c1
inhibition [4]: inactive

COc1oc(=O)c2cc(NC/C=C\c3ccccc3)ccc2c1Cl
inhibition [4]: inactive | Activity (HEK293 [5]): Non-toxic

CCCCCCNc1ccc2c(Cl)c(OC)oc(=O)c2c1
inhibition [4]: > 50% | Activity (HEK293 [5]): Non-toxic

COc1oc(=O)c2cc(N)ccc2c1Cl
half-life [6]: 3.5 h

CCOc1oc(=O)c2cc([N+](=O)[O-])ccc2c1Cl
half-life [9]: < 0.333 h | inhibition [4]: inactive

CC(C)C[C@H](NC(=O)[C@H](Cc1ccccc1)NC(=O)c1ccccc1)B(O)O
inhibition [8]: inactive | inhibition [4]: > 50% | IC50 [11]: 0.009 µM

CC(C)C[C@H](NC(=O)[C@H](Cc1ccccc1)NC(=O)c1cnccn1)B1O[C@H]2C[C@H]3C[C@H](C3(C)C)[C@@]2(C)O1
inhibition [8]: inactive | inhibition [4]: inactive

CCCCCCCC(=O)Nc1ccc2c(Cl)c(OC)oc(=O)c2c1
inhibition [4]: inactive

COc1oc(=O)c2cc(NCCCc3ccccc3)ccc2c1Cl
inhibition [4]: inactive | Activity (HEK293 [5]): Non-toxic

CCC(C)Oc1oc(=O)c2cc(N)ccc2c1Cl (centres undefined)
Activity (HEK293 [10]): Non-toxic | Activity (HEK293 [5]): Toxic

CCNc1ccc2c(Cl)c(OC)oc(=O)c2c1
IC50 (Gamma-secretase): 10 µM

CCCCC(CC)CNc1ccc2c(Cl)c(OC)oc(=O)c2c1 (centres undefined)
Activity (HEK293 [2]): Toxic | inhibition [3]: > 50%

COc1oc(=O)c2cc(NC(=O)OC(C)(C)C)ccc2c1Cl
inhibition [4]: inactive

COc1oc(=O)c2cc(NC(=O)C(F)(F)C(F)(F)F)ccc2c1Cl
inhibition [4]: inactive

COc1oc(=O)c2cc(NCc3cccc4ccccc34)ccc2c1Cl
inhibition [4]: > 50% | Activity (HEK293 [5]): Non-toxic

COc1oc(=O)c2cc(NC(C)=O)ccc2c1Cl
inhibition [4]: inactive
